Test results reported in patent publication US11571405B2, “Compositions for improving sexual function” (INXO A/S, priority 2018, dated 2023).

Assays:
[1] = oral; cited from earlier work
[2] = Inventors' findings on amounts of L-arginine and L-citrulline in the unit dosage; assay type: in vivo
Excerpt: Furthermore, higher amounts of L-arginine worsened the organoleptic properties of the unit dosage.
In an embodiment of the invention, the unit dosage comprises L-citrulline or a physiologically acceptable salt or hydrate thereof in the range from 0.5-3.0 g, such as 0.5-2.9 g, preferably 0.5-2.8 g, more preferably 0.5-2.7 g, such as 0.7-2.0 g, preferably 0.9-2.0 g, more preferably 1.1-2.0 g, even more preferably 1.3-2.0 g, most preferably 1.5-2.0 g.

SMILES | level above which some adverse effects, most commonly diarrhea, have been seen [1] | amount above which side effects occurred in some instances (e.g. stomachache) [2] | most efficacious amount in the unit dosage [2] | amount above which efficacy of a unit dosage was not improved further (plateau of efficacy) [2]
N=C(N)NCCC[C@H](N)C(=O)O [L-arginine] | above 20 g per day | above 10 g | 6.0 g | –
NC(=O)NCCC[C@H](N)C(=O)O [L-citrulline] | – | – | – | above 2.0 g
